Consider two molecules from ChEMBL document CHEMBL1146212, “Glyceraldehyde 3-phosphate dehydrogenase is a cellular target of the insulin mimic demethylasterriquinone B1” (J Med Chem, 2007).

SMILES strings stand for the structures.

Test [1] deals with Glyceraldehyde-3-phosphate dehydrogenase (Homo sapiens, UniProt P04406). Put plainly: Binding affinity to GAPDH in human erythrocytes. It counts as cell-based.
In test [2] the target is Glyceraldehyde-3-phosphate dehydrogenase (Oryctolagus cuniculus, UniProt P46406). Briefly: Binding affinity to GAPDH in rabbit muscle.
Chain of Glyceraldehyde-3-phosphate dehydrogenase (Oryctolagus cuniculus, UniProt P46406) (P46406 whole entry): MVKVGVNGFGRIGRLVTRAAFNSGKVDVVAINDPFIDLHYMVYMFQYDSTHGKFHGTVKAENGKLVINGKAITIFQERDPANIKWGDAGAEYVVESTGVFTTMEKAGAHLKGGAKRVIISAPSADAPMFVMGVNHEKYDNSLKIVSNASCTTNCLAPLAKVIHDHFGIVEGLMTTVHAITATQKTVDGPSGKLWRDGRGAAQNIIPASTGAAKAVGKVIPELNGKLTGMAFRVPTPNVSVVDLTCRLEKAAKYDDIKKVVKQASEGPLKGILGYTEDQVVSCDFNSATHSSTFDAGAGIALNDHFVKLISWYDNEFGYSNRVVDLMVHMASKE

Chain of Glyceraldehyde-3-phosphate dehydrogenase (Homo sapiens, UniProt P04406) (P04406 whole entry): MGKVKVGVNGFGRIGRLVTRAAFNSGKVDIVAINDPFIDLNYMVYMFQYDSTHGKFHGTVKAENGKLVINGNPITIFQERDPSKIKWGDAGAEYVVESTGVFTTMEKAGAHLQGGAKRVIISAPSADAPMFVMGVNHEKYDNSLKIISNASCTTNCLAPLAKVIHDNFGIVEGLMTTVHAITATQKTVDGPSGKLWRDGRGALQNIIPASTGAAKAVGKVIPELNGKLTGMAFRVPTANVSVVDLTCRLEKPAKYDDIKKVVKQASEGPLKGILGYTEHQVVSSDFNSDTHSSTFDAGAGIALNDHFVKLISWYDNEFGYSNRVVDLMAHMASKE

Consider `CC(C)=CCc1cccc2c(C3=C(O)C(=O)C(c4c(C)[nH]c5ccc(NC(=O)CCCCCNC(=O)CCCCC6SCC7NC(=O)NC76)cc45)=C(O)C3=O)c[nH]c12` (stereo not drawn), for which binding in test [1] was put at a Kd of 7.5 µM.

In turn, `C=CC(C)(C)c1[nH]c2ccccc2c1C1=C(O)C(O)=C(c2c[nH]c3c(CC=C(C)C)cccc23)C(=O)C1=O` showed an IC50 in test [2] of 15 µM. This molecule returned a Kd in test [1] of 7.2 µM.

Broadly, the Kd is the concentration at which binding is half-saturated. As usually defined, the IC50 is the concentration at which inhibition is half-maximal. Low readings indicate greater potency, high ones weaker potency.
